Measurements published in ChEMBL document CHEMBL1149517, “Synthesis and molecular modeling of a lisinopril-tryptophan analogue inhibitor of angiotensin I-converting enzyme” (Bioorg Med Chem Lett, 2006).
Activity calls are given as the source filed them. The rule behind the calls is not given here.

What was measured:
[1] = target: T1, Angiotensin-converting enzyme (Homo sapiens, UniProt P12821); assay: Inhibition of somatic ACE N domain upto 500 uM
[2] = target: T1, Angiotensin-converting enzyme; assay: Inhibition of testis ACE C domain
[3] = target: T1, Angiotensin-converting enzyme; assay: Selectivity for ACE C domain over ACE N domain

T1 sequence (P12821 whole entry): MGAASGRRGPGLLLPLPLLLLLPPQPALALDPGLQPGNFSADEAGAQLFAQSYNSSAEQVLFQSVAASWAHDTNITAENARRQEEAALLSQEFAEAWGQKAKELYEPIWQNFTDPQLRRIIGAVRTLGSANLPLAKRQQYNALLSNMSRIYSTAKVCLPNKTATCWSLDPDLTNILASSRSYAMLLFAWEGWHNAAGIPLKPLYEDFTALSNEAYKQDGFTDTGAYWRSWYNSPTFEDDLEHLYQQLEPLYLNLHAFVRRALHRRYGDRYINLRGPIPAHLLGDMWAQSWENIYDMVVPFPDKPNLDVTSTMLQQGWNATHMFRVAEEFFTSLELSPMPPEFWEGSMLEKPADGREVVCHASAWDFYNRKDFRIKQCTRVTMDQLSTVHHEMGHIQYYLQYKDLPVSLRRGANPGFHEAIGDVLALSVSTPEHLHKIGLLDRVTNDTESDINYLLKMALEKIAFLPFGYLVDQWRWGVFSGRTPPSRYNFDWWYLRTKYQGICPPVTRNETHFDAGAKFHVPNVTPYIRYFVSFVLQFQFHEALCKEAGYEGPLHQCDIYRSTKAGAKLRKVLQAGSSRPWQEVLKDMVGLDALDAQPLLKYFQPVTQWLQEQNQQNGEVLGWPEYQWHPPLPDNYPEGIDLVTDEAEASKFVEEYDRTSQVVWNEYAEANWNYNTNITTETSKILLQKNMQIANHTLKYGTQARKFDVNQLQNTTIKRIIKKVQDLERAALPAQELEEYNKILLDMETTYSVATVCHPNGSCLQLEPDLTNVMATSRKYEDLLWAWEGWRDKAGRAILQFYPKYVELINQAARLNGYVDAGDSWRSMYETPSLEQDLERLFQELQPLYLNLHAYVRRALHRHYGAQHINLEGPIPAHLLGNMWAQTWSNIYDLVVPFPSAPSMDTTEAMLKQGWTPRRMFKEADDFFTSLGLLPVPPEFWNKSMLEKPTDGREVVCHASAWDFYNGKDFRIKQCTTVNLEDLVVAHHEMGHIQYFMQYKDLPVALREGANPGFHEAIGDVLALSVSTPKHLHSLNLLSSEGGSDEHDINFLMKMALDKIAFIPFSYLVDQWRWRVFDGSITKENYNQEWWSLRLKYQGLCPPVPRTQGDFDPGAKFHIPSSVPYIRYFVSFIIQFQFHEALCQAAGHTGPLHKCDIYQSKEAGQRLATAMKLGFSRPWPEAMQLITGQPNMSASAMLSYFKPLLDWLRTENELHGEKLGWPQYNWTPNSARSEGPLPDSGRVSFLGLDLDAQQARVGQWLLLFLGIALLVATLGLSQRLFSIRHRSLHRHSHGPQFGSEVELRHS

| Structure (SMILES) | Activity [1] | Ki [2] [µM] | Ratio Ki [3] |
| --- | --- | --- | --- |
| NCCCC[C@H](N[C@H](CCc1ccccc1)C(=O)O)C(=O)N[C@@H](Cc1c[nH]c2ccccc12)C(=O)O | inactive | 26.3 | > 25 |
| NCCCC[C@H](N[C@@H](CCc1ccccc1)C(=O)O)C(=O)N[C@@H](Cc1c[nH]c2ccccc12)C(=O)O | inactive | 7 | > 100 |
